# Patent US8673888B2, “Depsipeptide for therapy of kidney cancer” (The United States of America, represented by the Secretary, …, priority 2002, dated 2014)
# Experiments:
# [1] = tested on: human kidney tumor (RXF-631L); assay: Antitumor effect on human renal tumor xenograft (RXF-631L) in nude mice; assay type: in vivo, mouse; settings: RXF-631L s.c. xenograft in nude mice; 3.2 and 1.8 mg/kg i.v. q4d×3; FIG. 1
# Protocol: A recommended amount of FR901228 was weighed, a solvent (10% HCO-60 (Nihon Surfactant Kogyo K.K./saline) was added and the mixture was ultrasonicated for dissolution. The positive control substance, Taxol, was dissolved in Cremophor EL (SIGMA/ethanol (1:1)) to a concentration of 24 mg/mL before test and preserved in refrigerator. When in use, a 9-fold amount of physiological saline was added to dilute the substance to 2.4 mg/mL (solvent component: 5% Cremophor EL-5% ethanol-90% saline).
# For the antitumor activity test of the drug, BALB/cANnNCrj-nu/nu mice (female, 6-week-old) were purchased from Charles River Japan (Yokohama, Japan), and after acclimation for more than 1 week, subjected to the test. The mice were reared in an SPF environment, where free access to water and feed was allowed. […]
# Fragments (3×3×3 mm) of RXF-631L tumor were subcutaneously implanted into the right flank of BALB/cANnNCrj-nu/nu mice. […] The tumor volume was calculated from the formula: tumor volume (mm^3)=½×L×W^2 where L and W represent the length and width of the tumor mass, respectively.
# The administration was started on the day the mice were grouped (Day 0). […] The liquid amount of administration was calculated based on the body weight measured on the day of administration (0.1 mL/10 g body weight).
# The tumor size (length, width) and body weight were measured twice a week from Day 0.
# [2] = tested on: clear cell renal carcinoma; assay: Antineoplastic response in a patient with clear cell renal carcinoma (RECIST criteria); assay type: in vivo, human
# Protocol: This patient was a person with a history of clear cell renal carcinoma that was diagnosed in 1996. The patient received a total of 10 doses of FR901228: FR901228 was administered at 9.10 mg/m^2 on day 1 and day 5 of the first cycle (21 days), 9.10 mg/m^2 on day 1 of the second cycle (21 days), 9.10 mg/m^2 on day 1 and day 5 of the third cycle (28 days), 9.10 mg/m^2 on day 1 of the fourth cycle (22 days), 12.70 mg/m^2 on day 1 of the fifth cycle (20 days), 17.8 mg/m^2 on day 1 of the sixth cycle (23 days), 17.8 mg/m^2 on day 1 of the seventh cycle (23 days) and 17.8 mg/m^2 on day 1 of the eighth cycle (21 days) by continuous infusion for 4 hours. The treatment effect was evaluated based on the RECIST criteria.
smiles,measurement,setting,value
C/C=C1\NC(=O)[C@H]2CSSCC/C=C/[C@H](CC(=O)N[C@H](C(C)C)C(=O)N2)OC(=O)[C@H](C(C)C)NC1=O [FR901228],growth of human kidney cancer in vivo (tumor size),[1],suppressed the growth
same,treatment effect (RECIST criteria),"[2]; one patient, 9.10 mg/m^2 by 4 h continuous infusion, after the first two cycles",partial response
same,treatment effect (RECIST criteria),"[2]; same patient, 10 doses of 9.10-17.8 mg/m^2, after cycle 8",disease progression
